Data from ChEMBL document CHEMBL1149887, “Enantiospecific synthesis and cytotoxicity of 7-(4-methoxyphenyl)-6-phenyl-2,3,8,8a-tetrahydroindolizin-5(1H)-one enantiomers” (Bioorg Med Chem, 2008).

Test system: HCT-116
Assay: Cytotoxicity against human HCT116 cells
Format: functional, cell-based

Structure (SMILES)	IC50
COc1ccc(C2=C(c3ccccc3)C(=O)N3CCC[C@H]3C2)cc1	390 nM
COc1ccc(C2=C(c3ccccc3)C(=O)N3CCC[C@@H]3C2)cc1	200 nM
COc1cc2c3c(c4cc(OC)c(OC)cc4c2cc1OC)CN1CCCC1C3 (racemic) [(+/-)-TYLOPHORINE]	670 nM
